Consider 1 compound from patent US20220186188A1, “Method for Obtaining Pancreatic Progenitor Cells and Pancreatic Islet Beta Cells By Means of Differentiation of Human Pluripotent Stem Cells” (Asia Regenerative Medicine, Ltd., priority 2019, published 2022).

Common to all, as to type: cell-based
Series [1] relates to pancreatic progenitor cells and pancreatic islet β cells differentiated from human embryonic stem cells. Kind of series: Immunofluorescence detection of PDX1 and PDX1/INS proteins (human embryonic stem cells). The protocol:
(§1) a pancreatic progenitor cell medium was prepared, the medium in step 1) was replaced with the pancreatic progenitor cell medium, and the cells were cultured in a carbon dioxide incubator at 37 degrees Celsius for 5 days, during which the medium was replaced every day, wherein the composition of the pancreatic progenitor cell medium was: with an MCDB131 medium as a basic medium, and the following components at the working concentrations were further included: 0.5% of bovine serum albumin (BSA), 1.5 g/L of sodium bicarbonate, 1×glutamine (GlutaMAX), 10 mM glucose, 0.25 M vitamin C, 1×insulin-transferrin-selenium-ethanolamine additive (ITS-X), 50 ng/ml of fibroblast growth factor 7 (KGF), 0.5 μM SANT1 (with smo as an inhibitor target), 100 nM retinoic acid (TTNPB), 500 nM phorbol 12,13-dibutyrate (PDBu), 2 μM ALK inhibitor (K02288), and 2 μM WNT signaling pathway inhibitor XAV-939 (not added in a control group), with the concentrations all being final concentrations.
(§2) b. pancreatic islet β cell medium 2 was prepared, the pancreatic islet β cell medium 1 in above-mentioned step a was replaced with the pancreatic islet β cell medium 2, and the cells were cultured in a carbon dioxide incubator at 37 degrees Celsius for 5 days, during which the medium was replaced every day, wherein the composition of the pancreatic islet β cell medium 1 was: with an MCDB131 medium as a basic medium, and the following components at the working concentrations were further included: 20 mM glucose, 2% of bovine serum albumin (BSA), 1.5 g/L of sodium bicarbonate, 1×glutamine (GlutaMAX), 0.05 mM vitamin C, 1×insulin-transferrin-selenium-ethanolamine additive (ITS-X), 2 μM ALK inhibitor (K02288), 1 μM triiodothyronine (T3), 10 μM YO-01027 (Notch signaling pathway inhibitor), and 10 μM zinc sulfate, with the concentrations all being final concentrations; and the composition of the pancreatic islet β cell medium 2 was: with an MCDB131 medium as a basic medium, and the following components at the working concentrations were further included: 20 mM glucose, 2% of bovine serum albumin (BSA), 1.5 g/L of sodium bicarbonate, 1×glutamine (GlutaMAX), 0.05 mM vitamin C, 1×insulin-transferrin-selenium-ethanolamine additive (ITS-X), 1 μM triiodothyronine (T3), 10 μM Repsox (ALK5 inhibitor), 10 μM vitamin E, 10 μg/ml of heparin sodium, 2 μM R428 (Axl inhibitor), 10 μM zinc sulfate, and 10 mM N-acetyl-L-cysteine (N-cys), with the concentrations all being final concentrations.
Cells in a culture plate were washed three times with a phosphate buffered saline (PBS), 3 minutes each time; the cells were fixed with 4% paraformaldehyde at room temperature for 20 minutes, and washed three times with PBS, 3 minutes each time; a blocking solution was prepared in advance (by adding Triton at a final concentration of 0.3% to 9 ml of DPBS, adding donkey serum at a final concentration of 10%, and uniformly mixing); the above-prepared blocking solution was used for blocking and perforation at room temperature for 2 hours; the blocking solution was soaked up, a working concentration of primary antibody prepared with the blocking solution was then added, and the product was left to stand at room temperature for 30 minutes and then placed in a refrigerator at 4° C. overnight; the next day, the product was washed three times with PBS, 3 minutes each time; a fluorescent secondary antibody of donkey serum was added and incubation was carried out at room temperature for 2 hours; in the same way, the product was washed three times with PBS, 3 minutes each time; the product was incubated with a working solution of the nuclear dye DAPI at room temperature for 10 minutes, and washed three times with PBS, 3 minutes each time; then a fluorescence microscope was used for observation and data were collected. […]

Series [2] shares this test system. Kind of series: Real-time fluorescence quantitative PCR of PDX1, NKX6-1 and INS mRNA (human embryonic stem cells). As to conditions: qPCR. The protocol: as §1, §2
Cells cultured in a 24-well plate were collected, and washed twice with 500 μl of DPBS at first, then covered with 200 μl of chymotrypsin-trypsin (Trypsin), and placed at 37° C. for 5 minutes of digestion. Whether the cells float in pieces was observed, and the digestion was terminated using 500 μl of DMEM/F12 medium, then the product was centrifuged at 1000 rpm for 3 minutes, the supernatant was removed, and cell pellets were collected and added to a new RNase-free centrifuge tube. […]
For orientation: Quantitative PCR measures a nucleic acid by following its amplification.

For series [3], the system named is pancreatic progenitor cells differentiated from human embryonic stem cells. Briefly: Flow cytometry detection of PDX1 in the pancreatic progenitor cell stage (human embryonic stem cells). As to conditions: 2 μM inhibitor in pancreatic progenitor cell medium, 5 days, compared with control group without WNT inhibitor. As for the experimental part: as §1, with “concentrations. […]” for “concentrations.”
On the technique in general: In flow cytometry, cells or beads pass a laser one at a time.

Setting [4] is: 2 μM inhibitor in pancreatic progenitor cell stage.
Setting [5] is: 2 μM inhibitor in pancreatic progenitor cell stage, GAPDH reference.

On to `O=C(Nc1cccc2cccnc12)c1ccc(N2C(=O)[C@@H]3[C@H](C2=O)[C@@H]2C=C[C@H]3C2)cc1` [IWR-1], for which, in series [1] (2 μM inhibitor added in pancreatic progenitor cell stage, immunofluorescence), the “number of insulin INS-positive and PDX1 co-stained pancreatic islet β cells in the mature pancreatic islet β cell stage” value is “significantly increased”. Moreover, in series [1] (setting [4]), the “PDX1-positive pancreatic progenitor cells (immunofluorescence)” value is reported as “significantly increased” and the “cell growth (total cell number by DAPI)” value is listed as “did not affect the cell growth”. The “transcription level of the insulin gene INS in the mature pancreatic islet β cell stage” value in series [2] (2 μM inhibitor added in pancreatic progenitor cell stage) was “greatly increased”. In series [2] (setting [5]), the “relative expression of mRNA of NKX6-1 in pancreatic progenitor cells” value is on record as “significantly increased” and the “relative expression of mRNA of PDX1 in pancreatic progenitor cells” value is “significantly increased”. The “PDX1-positive pancreatic progenitor cells (flow cytometry)” value in series [3] is recorded as “significantly increased”.
